Reference: the supplement of paper PMC11061612

Key:
Test in all cases: combination Emax (second highest fraction inhibited in the dose matrix, 72 h); higher = more inhibition; extreme values may be limits of the assay
[1] = system: BICR78 (Oral Cavity Carcinoma)
Procedure, shortened: (§1)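 Cell lines grown in DMEM/F12 or RPMI with 10% FBS were plated in 1536-well plates and held 24 hours at 37°C, 5% CO2 before 72 hours of exposure to two-drug dose matrices, with DMSO typically at 0.2%. CellTiter-Glo 2.0 luminescence gave viability, which was converted to inhibition. Vehicle wells were set to 0 and blank wells to 1. Combination Emax is the second-highest inhibition in the matrix, and Bliss excess is the observed combination effect minus the expected EA + EB − EA·EB, where EA and EB are the single-agent effects.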

[2] = system: D-283MED (Other Solid Carcinomas)
Procedure, shortened: as §1

D-392MG (Glioblastoma) = system: D-392MG (Glioblastoma)
Procedure, shortened: as §1

[3] = system: DOK (Oral Cavity Carcinoma)
Procedure, shortened: as §1

[4] = system: FU-OV-1 (Ovarian Carcinoma)
Procedure, shortened: as §1

[5] = system: HCT-116 (Colorectal Carcinoma)
Procedure, shortened: as §1

[6] = system: HLE (Hepatocellular Carcinoma)
Procedure, shortened: as §1

[7] = system: MEG-01 (Chronic Myelogenous Leukemia)
Procedure, shortened: as §1

MSTO-211H (Mesothelioma) = system: MSTO-211H (Mesothelioma)
Procedure, shortened: as §1

[8] = system: NOMO-1 (Acute Myeloid Leukemia)
Procedure, shortened: as §1

[9] = system: P31-FUJ (Acute Myeloid Leukemia)
Procedure, shortened: as §1

[10] = system: SK-LMS-1 (Other Solid Carcinomas)
Procedure, shortened: as §1

SK-MEL-1 (Melanoma) = system: SK-MEL-1 (Melanoma)
Procedure, shortened: as §1

[11] = system: SLVL (B-Cell Non-Hodgkin's Lymphoma)
Procedure, shortened: as §1

[12] = system: SNG-M (Endometrial Carcinoma)
Procedure, shortened: as §1

[13] = system: SW48 (Colorectal Carcinoma)
Procedure, shortened: as §1

[14] = system: SW948 (Colorectal Carcinoma)
Procedure, shortened: as §1

Saos-2 (Osteosarcoma) = system: Saos-2 (Osteosarcoma)
Procedure, shortened: as §1

[15] = system: TC-YIK (Other Solid Carcinomas)
Procedure, shortened: as §1

[16] = system: WSU-DLCL2 (B-Cell Non-Hodgkin's Lymphoma)
Procedure, shortened: as §1

Structure (SMILES)	combination Emax [1]	combination Emax [2]	combination Emax (D-392MG (Glioblastoma))	combination Emax [3]	combination Emax [4]	combination Emax [5]	combination Emax [6]	combination Emax [7]	combination Emax (MSTO-211H (Mesothelioma))	combination Emax [8]	combination Emax [9]	combination Emax [10]	combination Emax (SK-MEL-1 (Melanoma))	combination Emax [11]	combination Emax [12]	combination Emax [13]	combination Emax [14]	combination Emax (Saos-2 (Osteosarcoma))	combination Emax [15]	combination Emax [16]
O=C(c1cc(Cc2n[nH]c(=O)c3ccccc23)ccc1F)N1CCN(C(=O)C2CC2)CC1 [Olaparib] + CN(CC[C@H](CSC1=CC=CC=C1)NC2=C(C=C(C=C2)S(=O)(=O)NC(=O)C3=CC=C(C=C3)N4CCC(CC4)[C@H](C5=CC=CC=C5C6=CC=C(C=C6)Cl)O)S(=O)(=O)C(F)(F)F)CCO [AZD4320] (first compound max 10 µM, 7x7, partner max 1 µM)	0.0831	0.914	0.321	0.191	0.226	0.509	0.274	0.505	0.456	0.348	0.568	0.494	0.42	0.982	0.401	0.687	0.303	0.326	0.984	0.876
N#Cc1cnc(Nc2cc(NC[C@H]3CNCCO3)c(C(F)(F)F)cn2)cn1 [SRA737] + C=CCn1c(=O)c2cnc(Nc3ccc(N4CCN(C)CC4)cc3)nc2n1-c1cccc(C(C)(C)O)n1 [AZD1775] (first compound max 10 µM, partner max 1 µM)	0.561	1	0.518	0.481	0.632	0.758	0.485	0.935	0.726	0.988	0.973	0.649	0.277	0.935	0.883	0.764	0.807	0.811	0.858	1
Cc1c2c(nn1C)CSCc1cc(n(C)n1)CSc1cc(c3ccccc3c1)OCCCc1c(C(=O)O)n(C)c3c-2c(Cl)ccc13 [AZD5991] + CS(=O)(=O)CCNCc1ccc(-c2ccc3ncnc(Nc4ccc(OCc5cccc(F)c5)c(Cl)c4)c3c2)o1 [Lapatinib] (first compound max 1 µM, 7x7, partner max 10 µM)	0.445	0.986	0.104	0.987	0.42	0.382	0.23	0.557	0.193	0.88	0.985	0.265	0.37	0.341	0.177	0.649	0.26	0.497	0.26	1
C[C@@H](Oc1cc(-c2cnn(C3CCNCC3)c2)cnc1N)c1c(Cl)ccc(F)c1Cl [Crizotinib] + CC1=C(C(=CC=C1)Cl)NC(=O)C2=CN=C(S2)NC3=CC(=NC(=N3)C)N4CCN(CC4)CCO [Dasatinib] (first compound max 10 µM, 7x7, partner max 2 µM)	0.829	0.979	0.921	1	0.682	0.95	0.404	1	0.674	0.528	0.792	0.949	0.916	0.761	0.973	0.892	0.793	0.986	0.796	0.751
C=CCn1c(=O)c2cnc(Nc3ccc(N4CCN(C)CC4)cc3)nc2n1-c1cccc(C(C)(C)O)n1 [AZD1775] + Nc1ccn([C@@H]2O[C@H](CO)[C@@H](O)C2(F)F)c(=O)n1 [Gemcitabine] (first compound max 1 µM, partner max 0.3 µM)	0.718	0.995	0.597	0.66	0.633	0.88	0.709	0.918	0.815	0.992	1	0.804	0.422	0.954	0.751	0.887	0.879	0.843	0.865	1
N#Cc1cnc(Nc2cc(NC[C@H]3CNCCO3)c(C(F)(F)F)cn2)cn1 [SRA737] + CCc1c2c(nc3ccc(O)cc13)-c1cc3c(c(=O)n1C2)COC(=O)[C@]3(O)CC [SN-38] (first compound max 10 µM, 7x7, partner max 0.3 µM)	0.854	0.994	0.453	0.582	0.495	0.818	0.798	0.946	0.705	0.997	0.984	0.89	0.486	0.945	0.786	0.854	0.834	0.948	1	1
N#Cc1cnc(Nc2cc(NC[C@H]3CNCCO3)c(C(F)(F)F)cn2)cn1 [SRA737] + Nc1ccn([C@@H]2O[C@H](CO)[C@@H](O)C2(F)F)c(=O)n1 [Gemcitabine] (first compound max 10 µM, 7x7, partner max 0.3 µM)	0.782	1	0.611	0.704	0.584	0.873	0.773	0.883	0.83	1	1	0.855	0.482	0.961	0.869	0.841	0.828	0.817	0.872	1
O=C(c1cc(Cc2n[nH]c(=O)c3ccccc23)ccc1F)N1CCN(C(=O)C2CC2)CC1 [Olaparib] + COc1nnc2ccc(N3CCC(c4ccc(OCCN5CCN(C)C(=O)[C@H]5C)cc4)CC3)nn12 [AZD5153] (first compound max 10 µM, 7x7, partner max 1 µM)	0.41	0.881	0.405	0.445	0.59	0.741	0.338	0.76	0.246	0.939	0.57	0.544	0.303	0.685	0.47	0.561	0.428	0.454	0.85	0.949
C[C@@H](Nc1cc(F)cc(F)c1)c1cc(C(=O)N(C)C)cc2c(=O)cc(N3CCOCC3)oc12 [AZD8186] + CC(=O)c1c(C)c2cnc(Nc3ccc(N4CCNCC4)cn3)nc2n(C2CCCC2)c1=O [Palbociclib] (first compound max 10 µM, 7x7, partner max 10 µM)	0.385	0.831	0.446	0.538	0.444	0.684	0.197	0.182	0.428	0.568	0.277	0.808	0.265	0.439	0.432	0.617	0.433	0.329	0.741	0.762
O=C(c1cc(Cc2n[nH]c(=O)c3ccccc23)ccc1F)N1CCN(C(=O)C2CC2)CC1 [Olaparib] + Cc1c2c(nn1C)CSCc1cc(n(C)n1)CSc1cc(c3ccccc3c1)OCCCc1c(C(=O)O)n(C)c3c-2c(Cl)ccc13 [AZD5991] (first compound max 10 µM, 7x7, partner max 1 µM)	0.0524	0.9	0.142	0.381	0.199	0.37	0.157	0.116	0.0433	0.771	0.964	0.165	0.127	0.362	0.234	0.178	0.158	0.384	0.449	0.996
C=CCn1c(=O)c2cnc(Nc3ccc(N4CCN(C)CC4)cc3)nc2n1-c1cccc(C(C)(C)O)n1 [AZD1775] + CCc1c2c(nc3ccc(O)cc13)-c1cc3c(c(=O)n1C2)COC(=O)[C@]3(O)CC [SN-38] (first compound max 1 µM, partner max 0.3 µM)	0.854	0.996	0.569	0.745	0.711	0.866	0.791	0.964	0.783	0.992	0.985	0.898	0.56	0.967	0.77	0.857	0.862	0.964	1	1
N#Cc1cnc(Nc2cc(NC[C@H]3CNCCO3)c(C(F)(F)F)cn2)cn1 [SRA737] + O=c1[nH]cc(F)c(=O)[nH]1 [5-Fluorouracil] (first compound max 10 µM, 7x7, partner max 20 µM)	0.55		0.313	0.345	0.158	0.737	0.129	0.835	0.536	0.985	0.98	0.268	0.157	0.927	0.71	0.592	0.45	0.457	0.723	
Cc1c2c(nn1C)CSCc1cc(n(C)n1)CSc1cc(c3ccccc3c1)OCCCc1c(C(=O)O)n(C)c3c-2c(Cl)ccc13 [AZD5991] + Nc1ccn([C@@H]2O[C@H](CO)[C@@H](O)C2(F)F)c(=O)n1 [Gemcitabine] (first compound max 1 µM, 7x7, partner max 0.3 µM)	0.642	0.986	0.642	0.684	0.196	0.828	0.713	0.745	0.861	0.997	0.992	0.83	0.441	0.968	0.882	0.822	0.334		0.877	1
